US11981658B2, “Substituted aminopyridine compounds as EGFR inhibitors” (YUHAN CORPORATION, priority 2021, dated 2024)
Read-outs that look alike come from different tables or passages of the source.

Legend:
EGFR Del19/C797S = EGFR Del19/C797S (Homo sapiens, UniProt P00533, C797S/DEL746-750); test: Biochemical EGFR kinase inhibition assay (Lance Ultra TR-FRET), double mutant del19/C797S
Method in brief: (§1)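 Enzyme reactions lasted 1 hour at room temperature with test compounds between 0.003 and 10 μM, followed by 10 mM EDTA quench.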

EGFR wildtype (WT) = EGFR wildtype (WT) (Homo sapiens, UniProt P00533); test: Biochemical EGFR kinase inhibition assay (Lance Ultra TR-FRET), wildtype
Method in brief: as §1

EGFR L858R/T790M/C797S = EGFR L858R/T790M/C797S (Homo sapiens, UniProt P00533, C797S/L858R/T790M); test: Biochemical EGFR kinase inhibition assay (Lance Ultra TR-FRET), triple mutant L858R/T790M/C797S
Method in brief: as §1

EGFR Del19/T790M/C797S = EGFR Del19/T790M/C797S (Homo sapiens, UniProt P00533, C797S/DEL746-750/T790M); test: Biochemical EGFR kinase inhibition assay (Lance Ultra TR-FRET), triple mutant del19/T790M/C797S
Method in brief: as §1

EGFR L858R/C797S = EGFR L858R/C797S (Homo sapiens, UniProt P00533, C797S/L858R); test: Biochemical EGFR kinase inhibition assay (Lance Ultra TR-FRET), double mutant L858R/C797S
Method in brief: as §1

[1] = IC50 Del19/C797S (nM), 100 μM ATP
[2] = Km ATP, read-out: IC50 Del19/C797S (nM), Km ATP
[3] = Km ATP, read-out: IC50 WT (nM), Km ATP
[4] = IC50 L858R/T790M/C797S (nM), 100 μM ATP
[5] = Km ATP, read-out: IC50 L858R/T790M/C797S (nM), Km ATP
[6] = IC50 Del19/T790M/C797S (nM), 100 μM ATP
[7] = Km ATP, read-out: IC50 Del19/T790M/C797S (nM), Km ATP
[8] = IC50 L858R/C797S (nM), 100 μM ATP
[9] = Km ATP, read-out: IC50 L858R/C797S (nM), Km ATP

Chain of EGFR wildtype (WT) (P00533 25-1210): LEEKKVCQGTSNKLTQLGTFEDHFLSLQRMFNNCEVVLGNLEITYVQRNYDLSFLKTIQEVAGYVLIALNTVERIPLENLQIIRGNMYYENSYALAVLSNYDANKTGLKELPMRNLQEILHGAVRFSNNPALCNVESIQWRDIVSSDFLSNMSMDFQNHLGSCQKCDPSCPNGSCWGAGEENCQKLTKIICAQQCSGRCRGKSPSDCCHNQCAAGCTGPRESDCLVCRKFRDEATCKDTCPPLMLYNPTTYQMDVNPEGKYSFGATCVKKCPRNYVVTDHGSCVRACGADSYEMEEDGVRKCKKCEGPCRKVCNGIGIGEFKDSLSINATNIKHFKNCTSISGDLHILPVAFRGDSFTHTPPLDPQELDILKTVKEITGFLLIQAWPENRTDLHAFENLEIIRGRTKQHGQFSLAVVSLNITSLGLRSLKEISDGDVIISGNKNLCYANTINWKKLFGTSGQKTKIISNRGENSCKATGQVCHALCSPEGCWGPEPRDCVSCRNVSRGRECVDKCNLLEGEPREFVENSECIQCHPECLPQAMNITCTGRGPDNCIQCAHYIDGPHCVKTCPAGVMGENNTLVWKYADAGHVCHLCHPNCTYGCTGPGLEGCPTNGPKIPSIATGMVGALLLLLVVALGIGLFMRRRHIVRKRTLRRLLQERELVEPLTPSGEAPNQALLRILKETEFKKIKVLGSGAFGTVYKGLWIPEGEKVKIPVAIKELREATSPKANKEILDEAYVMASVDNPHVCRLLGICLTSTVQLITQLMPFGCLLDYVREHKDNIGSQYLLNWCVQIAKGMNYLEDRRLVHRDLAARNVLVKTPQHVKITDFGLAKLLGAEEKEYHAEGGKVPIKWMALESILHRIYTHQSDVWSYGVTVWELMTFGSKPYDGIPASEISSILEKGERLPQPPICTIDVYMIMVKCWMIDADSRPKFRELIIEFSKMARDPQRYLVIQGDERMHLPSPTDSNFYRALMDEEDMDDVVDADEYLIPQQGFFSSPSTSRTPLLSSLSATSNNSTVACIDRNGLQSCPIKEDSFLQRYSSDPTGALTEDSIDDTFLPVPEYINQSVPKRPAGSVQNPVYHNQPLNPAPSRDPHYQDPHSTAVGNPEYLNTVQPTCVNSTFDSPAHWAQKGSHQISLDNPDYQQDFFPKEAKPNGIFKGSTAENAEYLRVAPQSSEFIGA
Chain of EGFR L858R/T790M/C797S (P00533 25-1210 T790M/C797S/L858R): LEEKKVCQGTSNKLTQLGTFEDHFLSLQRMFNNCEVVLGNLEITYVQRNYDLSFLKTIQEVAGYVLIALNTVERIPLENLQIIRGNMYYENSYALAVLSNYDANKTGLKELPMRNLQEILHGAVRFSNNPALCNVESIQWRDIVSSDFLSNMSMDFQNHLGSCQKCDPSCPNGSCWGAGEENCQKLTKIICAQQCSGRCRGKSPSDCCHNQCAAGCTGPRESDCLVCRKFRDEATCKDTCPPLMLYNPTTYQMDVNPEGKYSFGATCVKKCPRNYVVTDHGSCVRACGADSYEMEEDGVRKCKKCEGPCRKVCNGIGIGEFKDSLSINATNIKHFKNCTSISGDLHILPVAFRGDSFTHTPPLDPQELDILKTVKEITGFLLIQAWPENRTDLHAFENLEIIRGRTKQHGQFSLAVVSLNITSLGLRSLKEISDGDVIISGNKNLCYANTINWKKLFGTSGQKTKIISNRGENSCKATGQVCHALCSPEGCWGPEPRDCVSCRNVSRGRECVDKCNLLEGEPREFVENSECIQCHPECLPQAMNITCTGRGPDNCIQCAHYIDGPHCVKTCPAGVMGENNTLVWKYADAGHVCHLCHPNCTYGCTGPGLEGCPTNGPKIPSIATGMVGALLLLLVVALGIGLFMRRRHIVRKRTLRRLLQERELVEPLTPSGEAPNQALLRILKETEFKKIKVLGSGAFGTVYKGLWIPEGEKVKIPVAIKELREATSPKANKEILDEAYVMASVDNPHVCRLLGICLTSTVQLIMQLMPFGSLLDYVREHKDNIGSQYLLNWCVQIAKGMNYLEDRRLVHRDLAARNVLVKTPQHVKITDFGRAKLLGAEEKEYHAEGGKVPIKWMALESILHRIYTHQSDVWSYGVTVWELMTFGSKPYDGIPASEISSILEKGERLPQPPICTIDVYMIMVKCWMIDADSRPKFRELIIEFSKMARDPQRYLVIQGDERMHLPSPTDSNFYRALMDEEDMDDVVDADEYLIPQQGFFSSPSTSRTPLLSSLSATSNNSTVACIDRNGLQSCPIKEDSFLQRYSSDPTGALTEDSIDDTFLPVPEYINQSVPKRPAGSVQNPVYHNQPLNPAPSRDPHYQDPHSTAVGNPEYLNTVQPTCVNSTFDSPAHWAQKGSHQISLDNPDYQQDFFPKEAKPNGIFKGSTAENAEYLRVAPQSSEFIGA
Chain of EGFR L858R/C797S (P00533 25-1210 C797S/L858R): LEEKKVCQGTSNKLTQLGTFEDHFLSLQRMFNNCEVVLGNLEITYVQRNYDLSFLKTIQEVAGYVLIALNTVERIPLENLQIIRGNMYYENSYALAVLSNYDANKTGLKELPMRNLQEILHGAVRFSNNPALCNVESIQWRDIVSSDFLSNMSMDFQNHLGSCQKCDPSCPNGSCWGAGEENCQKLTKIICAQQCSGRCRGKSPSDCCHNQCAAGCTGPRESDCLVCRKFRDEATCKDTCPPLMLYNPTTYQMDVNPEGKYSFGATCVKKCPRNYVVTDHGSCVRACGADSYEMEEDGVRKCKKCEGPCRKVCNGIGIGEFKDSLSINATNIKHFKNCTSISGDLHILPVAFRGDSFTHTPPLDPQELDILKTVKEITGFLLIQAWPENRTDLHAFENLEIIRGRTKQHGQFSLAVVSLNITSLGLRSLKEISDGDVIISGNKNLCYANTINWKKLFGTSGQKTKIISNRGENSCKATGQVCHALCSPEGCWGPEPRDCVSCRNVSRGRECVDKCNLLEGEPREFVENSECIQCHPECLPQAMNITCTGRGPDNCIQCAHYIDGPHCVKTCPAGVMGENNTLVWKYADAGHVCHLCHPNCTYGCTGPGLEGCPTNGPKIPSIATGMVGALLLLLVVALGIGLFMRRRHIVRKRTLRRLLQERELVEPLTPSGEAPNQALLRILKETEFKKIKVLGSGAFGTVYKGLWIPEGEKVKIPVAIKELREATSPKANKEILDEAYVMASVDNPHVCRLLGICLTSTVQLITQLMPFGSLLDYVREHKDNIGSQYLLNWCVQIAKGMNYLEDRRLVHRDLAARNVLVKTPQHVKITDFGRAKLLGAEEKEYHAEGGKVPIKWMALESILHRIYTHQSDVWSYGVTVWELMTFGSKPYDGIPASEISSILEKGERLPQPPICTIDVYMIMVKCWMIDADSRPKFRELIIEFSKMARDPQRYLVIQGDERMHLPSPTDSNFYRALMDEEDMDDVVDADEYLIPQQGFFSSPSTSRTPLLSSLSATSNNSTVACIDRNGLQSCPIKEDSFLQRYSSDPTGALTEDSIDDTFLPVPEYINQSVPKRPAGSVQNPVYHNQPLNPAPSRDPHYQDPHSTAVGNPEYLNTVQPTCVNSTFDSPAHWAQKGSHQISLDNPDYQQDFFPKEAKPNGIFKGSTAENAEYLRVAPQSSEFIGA
Chain of EGFR Del19/C797S (P00533 with tags, fused parts or gaps DEL746-750/C797S): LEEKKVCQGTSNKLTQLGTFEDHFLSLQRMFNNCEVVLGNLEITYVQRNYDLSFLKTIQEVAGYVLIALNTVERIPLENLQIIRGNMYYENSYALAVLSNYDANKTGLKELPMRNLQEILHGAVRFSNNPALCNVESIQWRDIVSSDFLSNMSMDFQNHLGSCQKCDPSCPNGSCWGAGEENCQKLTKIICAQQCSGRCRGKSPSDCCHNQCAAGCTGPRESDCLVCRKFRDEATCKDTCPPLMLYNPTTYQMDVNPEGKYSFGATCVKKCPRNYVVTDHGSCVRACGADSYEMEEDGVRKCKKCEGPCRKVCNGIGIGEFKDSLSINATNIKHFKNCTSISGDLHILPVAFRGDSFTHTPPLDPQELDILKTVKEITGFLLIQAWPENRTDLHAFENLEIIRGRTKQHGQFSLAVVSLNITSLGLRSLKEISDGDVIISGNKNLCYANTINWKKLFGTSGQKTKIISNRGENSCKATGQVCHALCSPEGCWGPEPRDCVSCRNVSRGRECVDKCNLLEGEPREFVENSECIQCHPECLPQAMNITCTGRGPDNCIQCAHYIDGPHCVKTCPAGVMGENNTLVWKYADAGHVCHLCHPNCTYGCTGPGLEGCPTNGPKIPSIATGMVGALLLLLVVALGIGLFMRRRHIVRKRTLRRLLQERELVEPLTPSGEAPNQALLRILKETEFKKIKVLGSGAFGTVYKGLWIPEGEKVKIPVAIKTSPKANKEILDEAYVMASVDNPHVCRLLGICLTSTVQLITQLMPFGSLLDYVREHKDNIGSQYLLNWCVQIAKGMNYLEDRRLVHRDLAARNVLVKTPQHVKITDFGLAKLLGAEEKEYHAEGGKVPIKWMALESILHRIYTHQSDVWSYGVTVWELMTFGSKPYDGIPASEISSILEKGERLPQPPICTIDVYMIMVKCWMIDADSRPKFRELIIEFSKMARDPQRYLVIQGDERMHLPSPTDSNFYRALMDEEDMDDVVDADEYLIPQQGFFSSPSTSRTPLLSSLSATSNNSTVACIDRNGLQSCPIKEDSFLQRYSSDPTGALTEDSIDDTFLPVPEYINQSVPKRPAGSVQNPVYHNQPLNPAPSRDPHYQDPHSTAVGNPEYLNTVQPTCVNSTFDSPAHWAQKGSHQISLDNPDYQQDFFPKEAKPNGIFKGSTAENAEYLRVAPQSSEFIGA

| IC50 (EGFR Del19/C797S; [1]) | IC50 (EGFR Del19/C797S; [2]) | IC50 (EGFR wildtype (WT); IC50 WT (nM), 100 μM ATP) | IC50 (EGFR wildtype (WT); [3]) | IC50 (EGFR L858R/T790M/C797S; [4]) | IC50 (EGFR L858R/T790M/C797S; [5]) | IC50 (EGFR Del19/T790M/C797S; [6]) | IC50 (EGFR Del19/T790M/C797S; [7]) | IC50 (EGFR L858R/C797S; [8]) | IC50 (EGFR L858R/C797S; [9]) | Structure (SMILES) | further results |
| --- | --- | --- | --- | --- | --- | --- | --- | --- | --- | --- | --- |
| 0.7 nM | 0.6 nM | 197 nM | 0.8 nM | 0.2 nM | 0.1 nM | 0.4 nM | 0.4 nM | 1.4 nM | 0.7 nM | CN1CCN(Cc2ccc(C#Cc3cnc(Nc4ccnc(-c5cnn(S(=O)(=O)C6CC6)c5)n4)cc3N3CCC(C)(O)CC3)cc2)CC1 [Example 368, 1-(2-((2-(1-(Cyclopropylsulfonyl)-1H-pyrazol-4-yl)pyrimidin-4-yl)amino)-5-((4-((4-methylpiperazin-1-yl)methyl)phenyl)ethynyl)pyridin-4-yl)-4-methylpiperidin-4-ol] | – |
| 8 nM | – | 5850 nM | – | 1.2 nM | – | 0.7 nM | – | 45.2 nM | – | CN1CCC2(CC1)CCN(c1cc(Nc3ccnc(-c4cnn(S(=O)(=O)C5CC5)c4)n3)ncc1C#Cc1cnn(C(F)F)c1)CC2 [Example 321, 2-(1-(Cyclopropylsulfonyl)-1H-pyrazol-4-yl)-N-(5-((1-(difluoromethyl)-1H-pyrazol-4-yl)ethynyl)-4-(9-methyl-3,9-diazaspiro[5.5]undecan-3-yl)pyridin-2-yl)pyrimidin-4-amine] | – |
| 105 nM | – | > 10000 nM | – | 3.2 nM | – | 1.2 nM | – | 1770 nM | – | O=S(=O)(C1CC1)n1cc(-c2nccc(Nc3cc(NC[C@H]4CC[C@H](O)CC4)c(C#CC4CC5CCC4O5)cn3)n2)cn1 (some centres unmarked) [Example 423, (1r,4r)-4-(((5-((7-Oxabicyclo[2.2.1]heptan-2-yl)ethynyl)-2-((2-(1-(cyclopropylsulfonyl)-1H-pyrazol-4-yl)pyrimidin-4-yl)amino)pyridin-4-yl)amino)methyl)cyclohexan-1-ol] | – |
| 1.9 nM | – | > 10000 nM | – | 0.9 nM | – | 0.5 nM | – | 83.5 nM | – | CN(C)CCNC1CCN(c2cc(Nc3ccnc(-c4cnn(S(=O)(=O)C5CC5)c4)n3)ncc2C#Cc2cnn(C(F)(F)F)c2)CC1 [Example 143, N^1-(1-(2-((2-(1-(Cyclopropylsulfonyl)-1H-pyrazol-4-yl)pyrimidin-4-yl)amino)-5-((1-(trifluoromethyl)-1H-pyrazol-4-yl)ethynyl)pyridin-4-yl)piperidin-4-yl)-N^2,N^2-dimethylethane-1,2-diamine] | IC50 (EGFR Del19/C797S; Km ATP, read-out: IC50 Del19/C797S (nM) Km ATP): 1.2 nM; IC50 (EGFR wildtype (WT); Km ATP, read-out: IC50 WT (nM) Km ATP): 14.3 nM; IC50 (EGFR L858R/T790M/C797S; Km ATP, read-out: IC50 L858R/T790M/C797S (nM) Km ATP): 0.3 nM; IC50 (EGFR Del19/T790M/C797S; Km ATP, read-out: IC50 Del19/T790M/C797S (nM) Km ATP): 0.5 nM; IC50 (EGFR L858R/C797S; Km ATP, read-out: IC50 L858R/C797S (nM) Km ATP): 1.8 nM |
| – | – | – | – | – | – | – | – | – | – | C[C@]1(O)CC[C@@H](Nc2cc(Nc3ccnc(-c4cnn(S(=O)(=O)C5CC5)c4)n3)ncc2C#Cc2ccc(CN3CCOCC3)cc2)CC1 [Example 158, (1s,4s)-4-((2-((2-(1-(Cyclopropylsulfonyl)-1H-pyrazol-4-yl)pyrimidin-4-yl)amino)-5-((4-(morpholinomethyl)phenyl)ethynyl)pyridin-4-yl)amino)-1-methylcyclohexan-1-ol] | IC50 (EGFR Del19/C797S; ATP at Km, read-out: IC50 Del19/C797S (nM), Km ATP): 18.3 nM; IC50 (EGFR Del19/C797S; read-out: IC50 Del19/C797S (nM), 100 μM ATP): 131 nM; IC50 (EGFR wildtype (WT); ATP at Km, read-out: IC50 WT (nM), Km ATP): 523 nM; IC50 (EGFR wildtype (WT); read-out: IC50 WT (nM), 100 μM ATP): > 10000 nM; IC50 (EGFR L858R/T790M/C797S; ATP at Km, read-out: IC50 L858R/T790M/C797S (nM), Km ATP): 2.5 nM; IC50 (EGFR L858R/T790M/C797S; read-out: IC50 L858R/T790M/C797S (nM), 100 μM ATP): 8.4 nM; IC50 (EGFR Del19/T790M/C797S; ATP at Km, read-out: IC50 Del19/T790M/C797S (nM), Km ATP): 6.2 nM; IC50 (EGFR Del19/T790M/C797S; read-out: IC50 Del19/T790M/C797S (nM), 100 μM ATP): 6.8 nM; IC50 (EGFR L858R/C797S; ATP at Km, read-out: IC50 L858R/C797S (nM), Km ATP): 15.3 nM; IC50 (EGFR L858R/C797S; read-out: IC50 L858R/C797S (nM), 100 μM ATP): 809 nM |
| 9.1 nM | – | > 10000 nM | – | 1.2 nM | – | 1.6 nM | – | 28.5 nM | – | Cn1cc(C#Cc2cnc(Nc3ccnc(-c4cnn(S(=O)(=O)C5CC5)c4)n3)cc2N2CCC(C(C)(C)O)CC2)cn1 [Example 11, 2-(1-(2-((2-(1-(Cyclopropylsulfonyl)-1H-pyrazol-4-yl)pyrimidin-4-yl)amino)-5-((1-methyl-1H-pyrazol-4-yl)ethynyl)pyridin-4-yl)piperidin-4-yl)propan-2-ol] | – |
| 44.3 nM | 16.6 nM | > 10000 nM | 294 nM | 29.3 nM | 24.7 nM | 14.9 nM | 26.7 nM | 971 nM | 17.8 nM | CS(=O)(=O)N1CCC(C#Cc2cnc(Nc3ccnc(-c4cnn(S(=O)(=O)C5CC5)c4)n3)cc2NCC2CCC(O)CC2)C1 (centres unmarked) [Example 398, (1 r,4r)-4-(((2-((2-(1-(Cyclopropylsulfonyl)-1H-pyrazol-4-yl)pyrimidin-4-yl)amino)-5-((1-(methylsulfonyl)pyrrolidin-3-yl)ethynyl)pyridin-4-yl)amino)methyl)cyclohexan-1-ol] | – |
| 0.8 nM | – | 2910 nM | – | 1.4 nM | – | 0.1 nM | – | 10.3 nM | – | CN(C)CCC1CCN(c2cc(Nc3ccnc(-c4cnn(S(=O)(=O)C5CC5)c4)n3)ncc2C#CC2CCN(C(=O)C(F)(F)F)C2)CC1 (centres unmarked) [Example 413, 1-(3-((6-((2-(1-(Cyclopropylsulfonyl)-1H-pyrazol-4-yl)pyrimidin-4-yl)amino)-4-(4-(2-(dimethylamino)ethyl)piperidin-1-yl)pyridin-3-yl)ethynyl)pyrrolidin-1-yl)-2,2,2-trifluoroethan-1-one] | – |
| 1.4 nM | 0.6 nM | > 10000 nM | 10.2 nM | 1.2 nM | 0.8 nM | 5.7 nM | 1.3 nM | 28.2 nM | 1.6 nM | CS(=O)(=O)N1CCC(C#Cc2cnc(Nc3ccnc(-c4cnn(S(=O)(=O)C5CC5)c4)n3)cc2NC2CCC(O)CC2)C1 (centres unmarked) [Example 399, (1s,4s)-4-((2-((2-(1-(Cyclopropylsulfonyl)-1H-pyrazol-4-yl)pyrimidin-4-yl)amino)-5-((1-(methylsulfonyl)pyrrolidin-3-yl)ethynyl)pyridin-4-yl)amino)cyclohexan-1-ol] | – |
| 1720 nM | – | > 10000 nM | – | 18.2 nM | – | 5.9 nM | – | 813 nM | – | CC(C)(C#Cc1cnc(Nc2ccnc(-c3cnn(S(=O)(=O)C4CC4)c3)n2)cc1N[C@H]1CC[C@@H](O)CC1)N1CCOCC1 [Example 230, (1s,4s)-4-((2-((2-(1-(Cyclopropylsulfonyl)-1H-pyrazol-4-yl)pyrimidin-4-yl)amino)-5-(3-methyl-3-morpholinobut-1-yn-1-yl)pyridin-4-yl)amino)cyclohexan-1-ol] | – |
| 107 nM | – | > 10000 nM | – | 5.1 nM | – | 1.4 nM | – | 68.7 nM | – | CNC1CCN(c2cc(Nc3ccnc(-c4cnn(S(=O)(=O)C5CC5)c4)n3)ncc2C#Cc2cnn(C)c2)CC1 [Example 130, 2-(1-(Cyclopropylsulfonyl)-1H-pyrazol-4-yl)-N-(5-((1-methyl-1H-pyrazol-4-yl)ethynyl)-4-(4-(methylamino)piperidin-1-yl)pyridin-2-yl)pyrimidin-4-amine] | – |
| 181 nM | – | > 10000 nM | – | 27.7 nM | – | 13.3 nM | – | 209 nM | – | Cn1cc(C#Cc2cnc(Nc3ccnc(-c4cnn(S(=O)(=O)C5CC5)c4)n3)cc2N2CCC(OC(F)(F)F)CC2)cn1 [Example 67, 2-(1-(Cyclopropylsulfonyl)-1H-pyrazol-4-yl)-N-(5-((1-methyl-1H-pyrazol-4-yl)ethynyl)-4-(4-(trifluoromethoxy)piperidin-1-yl)pyridin-2-yl)pyrimidin-4-amine] | – |
| 2.7 nM | 2.3 nM | 1130 nM | 3.8 nM | 0.9 nM | 0.3 nM | 1.1 nM | 0.8 nM | 7.7 nM | 2.5 nM | CN1CCN(Cc2ccc(C#Cc3cnc(Nc4ccnc(-c5cnn(S(=O)(=O)C6CC6)c5)n4)cc3N[C@H]3CC[C@@H](CO)CC3)cc2)CC1 [Example 360, ((1s,4s)-4-((2-((2-(1-(Cyclopropylsulfonyl)-1H-pyrazol-4-yl)pyrimidin-4-yl)amino)-5-((4-((4-methylpiperazin-1-yl)methyl)phenyl)ethynyl)pyridin-4-yl)amino)cyclohexyl)methanol] | – |
